Entries after “also recorded” stand apart in the source; their conditions may differ.
Key:
[1] = test system: polysaccharide intercellular adhesion (PIA) production by S. aureus SA113; experiment: Quantification of PIA by chemiluminescence (WGA-biotin/HRP-streptavidin); type: cell-based, Staphylococcus aureus; settings: 6 hrs; for decrease of the amount of PIA formed on the cell surface: densitometer, untreated = 100%
Method: The amount of PIA was determined by chemiluminescence detection using horseradish peroxidase-conjugated streptavidin (Pierce) according to a method described elsewhere (S. Schlag et al. (2007), supra). Briefly, a tested bacterial strain prepared in TSBg broth was added with β-PGG at a designated concentration and then cultured in a 9 cm petri dish for 6 hrs. The bacterial cells grown in the petri dish were collected by scraping, followed by centrifugation, and the resultant cell pellets were redissolved by addition of 3 mL of 0.5 M EDTA (pH 8.0) for every gram (wet weight) of cell pellet, followed by boiling at 100° C. for 10 min. After centrifugation at 10,000 g for 30 min, the resultant supernatant was 100-fold diluted. An 80 μL aliquot of the diluted supernatant was incubated with 20 μL of proteinase K (10 mg/mL, in dH2O) at 37° C. for 2 hrs, followed by blotting onto a PVDF membrane (Millipore) using a 96-well dot-blot apparatus. After blotting, the membrane was dried and soaked in a first blocking buffer (containing 3% bovine serum albumin (BSA) and 0.05% Tween-20 in PBS), followed by incubation at room temperature for 1 hr in the first blocking buffer containing 0.8 μg/mL wheat germ agglutinin conjugated with biotin (WGA-biotin, Sigma-Aldrich). After sequentially washing with the first blocking buffer and a second blocking buffer (containing 1% BSA and 0.05% Tween-20 in PBS), the membrane was incubated with horseradish peroxidase-conjugated streptavidin (Pierce) for 30 min, and washed 4 times with the first blocking buffer, followed by incubation with 1 mL of a substrate reagent (Luminol/Enhancer solution and Stable Peroxide solution, Pierce) at room temperature for 5 min. Thereafter, the membrane was detected by autoradiography using X-ray film, and the intensity of each spot formed on the X-ray film was quantified using a densitometer (LAS-3000, Fujifilm). The relative PIA amount produced by the tested bacterial strain was determined based on the detected intensity, with the amount of PIA from bacterial cells without PGG treatment being set as 100%.
To detect PIA in culture medium, the medium was concentrated using an Amicon-Ultra4 centrifuge filter (Millipore, Billerica, Mass., USA) prior to extraction.
Similar experiments were performed using four clinical isolates of S. aureus, namely MSSA strains SA13 and SA288, and MRSA strains SA44 and SA 130.

[2] = test system: S. aureus SA113; experiment: Adherence assay: β-PGG added at different times after inoculation, biofilm by crystal violet at 6 hours; type: cell-based, Staphylococcus aureus; settings: for reduction of biofilm formation: read at 6 hours
Method: At 6 hours after seeding, the wells were subjected to crystal violet staining to determine the amounts of biofilm formed on the inner surfaces of the wells of polystyrene microtiter plates or on the polycarbonate discs.

[3] = test system: human epithelial and fibroblast cells; experiment: Toxicity to human cells (summary statement); type: cell-based; settings: concentrations below 50 μM
Method: Human HepG2 cells (ATCC HB-8065) and 293T cells (ATCC CRL-11268) were cultured in Dulbecco's modified Eagle's medium (DMEM) supplemented with 10% (v/v) fetal calf serum. Human MRC-5 cells (ATCC CCL171) and HEp-2 cells (ATCC CCL-23) were cultured in Eagle's minimum essential medium (MEM) supplemented with 10% fetal calf serum. These four human cell lines were seeded into 24-well polystyrene tissue culture plates at a cell density of 1×10^5 cells/500 μL medium per well, respectively. After incubation at 37° C. for 24 hrs, β-PGG was added into each well in various amounts (0, 6.25, 12.5, 25 and 50 μM). After 24 hr treatment of β-PGG, toxicity of β-PGG to these human cell lines was determined using the 3-(4,5-dimethylthiazol-2-yl)-2,5-diphenyltetrazolium bromide (MTT) method (Xiangshu Piao et al. (2008), supra). Additionally, toxicity of β-PGG to the 293T cells was also determined in medium containing 0% and 2% fetal calf serum. Cells treated with DMSO were used as a negative control.

O=C(OC[C@H]1O[C@@H](OC(=O)c2cc(O)c(O)c(O)c2)[C@H](OC(=O)c2cc(O)c(O)c(O)c2)[C@@H](OC(=O)c2cc(O)c(O)c(O)c2)[C@@H]1OC(=O)c1cc(O)c(O)c(O)c1)c1cc(O)c(O)c(O)c1 [β-PGG, 1,2,3,4,6-penta-O-galloyl-β-D-glucopyranose]
decrease of the amount of PIA formed on the cell surface ([1]; 3.13 μM): 7% | decrease of the amount of PIA formed on the cell surface ([1]; 12.5 μM): 58% | decrease of the amount of PIA formed on the cell surface ([1]; 50 μM): 87% | PIA production (extracted from bacterial cells) ([1]; 3.13, 12.5 and 50 μM): PIA production was inhibited | PIA released into the culture medium ([1]; 3.13, 12.5 and 50 μM): decreased after β-PGG treatment in a dose-dependent manner | reduction of biofilm formation ([2]; 6.25 μM added at 0.5 hr after inoculation, DMSO = 100%): 62% | reduction of biofilm formation ([2]; 6.25 μM added at 1 hr after inoculation, DMSO = 100%): 19% | reduction of biofilm formation ([2]; 12.5 μM added at 0.5 and 1 hr after inoculation): more than 90% | inhibition of biofilm formation ([2]; added at 1.5 and 2 hr after inoculation): not inhibited | time of addition after seeding at which β-PGG is effective ([2]; added into the culture medium after seeding): ≤ 1 h | toxicity to human epithelial and fibroblast cells [3]: lacks toxicity; also recorded: not toxic

Source: patent US9181290B2, “Inhibition of biofilm formation by 1,2,3,4,6-penta-O-galloyl-D-glucopyranose” (CHANG GUNG UNIVERSITY, priority 2011, dated 2015)
